Read-outs that look alike come from different tables or passages of the source.
Tests used:
[1] = target: T1, FGF14:Nav1.6 C-tail complex (Homo sapiens, UniProt Q92915+Q9UQD0); experiment: Split-luciferase complementation assay (LCA) in Clone V double stable HEK293 cells; format: cell-based; conditions: for Split Luciferase Assay Z-score Set 1 / Split Luciferase Assay % Lum Set 1 / Split Luciferase Assay Z-score Set 2 / Split Luciferase Assay %Lum Set 2: CC_NCI screening; for Split Luciferase Assay Z-score Set 1 / Split Luciferase Assay % Lum Set 1: biological replicate Set 1; for Split Luciferase Assay Z-score Set 1 / Split Luciferase Assay Z-score Set 2: normalized to on-plate 0.3% DMSO controls; for Split Luciferase Assay % Lum Set 1 / Split Luciferase Assay %Lum Set 2: normalized to on-plate 0.3% DMSO controls (n=16 per plate); for Split Luciferase Assay %Lum Avg: average of Set 1 and Set 2, normalized to 0.3% DMSO controls; for Split Luciferase Assay Z-score Set 2 / Split Luciferase Assay %Lum Set 2: biological replicate Set 2
T1 construct: polymerase chain reaction (PCR) amplification of the FGF14 open reading frame (nt 1–855); C-terminal fragment of Nav1.6 (amino acids 1763–1976) fused with CD4ΔC-tail (amino acids 1–395); expressed in transfected cells

[2] = target: full-length P. pyralis luciferase (Photinus pyralis, UniProt P08659, K549A/L550V/N119G/N50D/S548I); format: cell-based
[3] = in vitro; conditions: human
[4] = tested on: Clone V cells; experiment: CellTiter Blue (CTB) cell viability counter-screen; conditions: CC_NCI screening; normalized to on-plate 0.3% DMSO controls
[5] = tested on: Clone V cells; conditions: human
[6] = CC_NCI screening, normalized to on-plate 0.3% DMSO controls

Sequence of full-length P. pyralis luciferase (P08659 whole entry N50D/N119G/S548I/K549A/L550V, looked up): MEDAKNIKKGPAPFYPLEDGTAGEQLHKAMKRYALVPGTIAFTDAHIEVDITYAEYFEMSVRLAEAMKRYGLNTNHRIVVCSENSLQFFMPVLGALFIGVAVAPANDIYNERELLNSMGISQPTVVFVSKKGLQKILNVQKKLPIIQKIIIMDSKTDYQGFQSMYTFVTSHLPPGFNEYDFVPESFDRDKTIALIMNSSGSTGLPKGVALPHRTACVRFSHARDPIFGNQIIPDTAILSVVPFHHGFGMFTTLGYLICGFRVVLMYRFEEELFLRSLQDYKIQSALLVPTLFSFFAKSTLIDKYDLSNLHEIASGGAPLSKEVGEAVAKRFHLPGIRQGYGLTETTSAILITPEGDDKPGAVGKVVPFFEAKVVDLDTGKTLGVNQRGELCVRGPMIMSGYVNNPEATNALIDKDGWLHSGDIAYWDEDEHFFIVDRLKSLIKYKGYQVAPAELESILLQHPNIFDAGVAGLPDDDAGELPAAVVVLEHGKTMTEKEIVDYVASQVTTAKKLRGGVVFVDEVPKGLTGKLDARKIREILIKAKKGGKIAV
T1 sequence (Q92915 1-252 isoform Q92915-2): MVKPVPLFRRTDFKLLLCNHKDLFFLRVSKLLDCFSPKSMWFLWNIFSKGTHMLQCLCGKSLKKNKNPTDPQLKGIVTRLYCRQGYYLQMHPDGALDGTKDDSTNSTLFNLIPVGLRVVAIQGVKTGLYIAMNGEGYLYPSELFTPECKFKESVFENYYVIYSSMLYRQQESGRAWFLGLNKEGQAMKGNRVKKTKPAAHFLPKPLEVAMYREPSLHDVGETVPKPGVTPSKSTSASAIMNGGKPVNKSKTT
T1 sequence (Q9UQD0 1763-1976 limits assumed): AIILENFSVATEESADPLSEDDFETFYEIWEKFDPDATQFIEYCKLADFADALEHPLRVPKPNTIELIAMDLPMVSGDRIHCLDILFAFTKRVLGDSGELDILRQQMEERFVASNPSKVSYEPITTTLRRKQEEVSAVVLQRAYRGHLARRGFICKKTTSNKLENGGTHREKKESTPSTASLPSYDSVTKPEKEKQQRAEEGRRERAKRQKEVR

Row | Compound | Split Luciferase Assay Z-score Set 1 [1] | Split Luciferase Assay % Lum Set 1 [1] | Split Luciferase Assay %Lum Avg [1] | Luciferase Assay % Lum (full-length luciferase counter-screen) [2, 6] | Luciferase Assay Z-score (full-length luciferase counter-screen) [2, 6] | viability at 16 h, 30 µM ([3]; Clone V cells) | Toxicity Assay Z-score (CTB cell viability) [4] | Split Luciferase Assay Z-score Set 2 [1] | Split Luciferase Assay %Lum Set 2 [1] | Luciferase Assay % Lum (full-length luciferase counter-screen) [2] | Luciferase Assay Z-score (full-length luciferase counter-screen) [2] | Toxicity Assay Z-score (CTB cell viability) ([5]; 16 h, 30 µM) | viability at 16 h, 30 µM [3] | Toxicity Assay Z-score (CTB cell viability) [5] | viability [3]
1 | CS(=O)(=O)c1ccc(C2=C(c3ccccc3)C(=O)OC2)cc1 [ROFECOXIB] | 1.78 | 122.08% | 87.57% | 102.66% | 0.34 | 109% | 1.28 |  |  |  |  |  |  |  | 
2 | CO[C@H]1C[C@@H]2CC[C@@H](C)[C@@](O)(O2)C(=O)C(=O)N2CCCC[C@H]2C(=O)O[C@H]([C@H](C)C[C@@H]2CC[C@@H](O)[C@H](OC)C2)CC(=O)[C@H](C)/C=C(\C)[C@@H](O)[C@@H](OC)C(=O)[C@H](C)C[C@H](C)/C=C/C=C/C=C/1C [Sirolimus] | 1.26 | 115.56% | 110.32% | 80.58% | -2.49 | 103% | 0.38 | 0.41 | 105.07% |  |  |  |  |  | 
3 | CN(C)c1nc(N(C)C)nc(N(C)C)n1 [Altretamine] | -0.59 | 92.73% | 107.74% |  |  |  |  | 1.85 | 122.76% | 97.84% | -0.28 | 0.43 | 103% |  | 
4 | CN(Cc1cnc2nc(N)nc(N)c2n1)c1ccc(C(=O)N[C@@H](CCC(=O)O)C(=O)O)cc1 [Methotrexate] | 0.73 | 109.04% | 106.01% | 94.27% | -0.73 | 102% |  | 0.24 |  |  |  | 0.27 |  |  | 
5 | CO[C@@]12[C@H](COC(N)=O)C3=C(C(=O)C(C)=C(N)C3=O)N1C[C@@H]1N[C@@H]12 [Mitomycin] | 0.73 | 109.04% | 104.45% | 110.98% | 1.41 |  |  | -0.01 | 99.87% |  |  |  |  | 2.45 | 118%
6 | CCCCC(=O)OCC(=O)[C@]1(O)Cc2c(O)c3c(c(O)c2[C@@H](O[C@H]2C[C@H](NC(=O)C(F)(F)F)[C@H](O)[C@H](C)O2)C1)C(=O)c1c(OC)cccc1C3=O [Valrubicin] | 2.84 | 135.13% | 124.78% |  |  |  |  | 1.17 | 114.43% | 92.36% | -0.98 | 0.60 | 104% |  | 
7 | C#Cc1cccc(Nc2ncnc3cc(OCCOC)c(OCCOC)cc23)c1 [ERLOTINIB] | -0.76 | 90.56% | 85.85% | 80.96% | -2.44 | 103% |  | -1.53 | 81.14% |  |  | 0.46 |  |  | 
8 | O=C(NCCCNc1nc(Nc2cccc(NC(=O)N3CCCC3)c2)ncc1I)c1cccs1 [BX 795] | -4.28 | 47.07% | 37.58% | 70.68% | -3.76 |  |  | -5.85 | 28.09% |  |  | 0.47 | 103% |  | 
9 | Nc1ncn([C@@H]2O[C@H](CO)[C@@H](O)[C@H]2O)c(=O)n1 [Azacitidine] | -0.32 | 95.99% | 99.49% | 93.68% | -0.81 |  |  | 0.24 | 102.99% |  |  | 0.41 | 103% |  | 
10 | CCCCCOC(=O)Nc1nc(=O)n([C@@H]2O[C@H](C)[C@@H](O)[C@H]2O)cc1F [Capecitabine] | 1.96 | 124.26% | 119.35% | 100.06% | 0.01 | 107% |  | 1.17 | 114.43% |  |  | 1.00 |  |  | 
11 | O=c1[nH]cc(F)c(=O)[nH]1 [Fluorouracil] | 0.64 | 107.95% | 112.23% | 111.63% | 1.49 |  |  | 1.34 | 116.51% |  |  | 0.61 | 104% |  | 
12 | C[C@@H](CN1CC(=O)NC(=O)C1)N1CC(=O)NC(=O)C1 [Dexrazoxane] | 1.26 | 115.56% | 117.08% |  |  |  |  | 1.51 | 118.60% | 109.07% | 1.16 | 2.09 | 115% |  | 

— PMC6858373 (Scientific Reports, 2019)
